{"source": "patent US11643438B2", "about": "“Antimicrobial peptides and methods of use” (priority 2018, dated 2023)", "key": {"[1]": {"system": "Paecilomyces lilacinus 165E10", "experiment": "Antifungal MIC80/MFC assay, fungal pathogen panel", "conditions": "Purpureocillium lilacinum, 165E10"}, "[2]": {"system": "Candida albicans 8", "experiment": "Antifungal MIC80 assay, clinical yeast isolates"}, "[3]": {"system": "Candida albicans 30", "experiment": "Antifungal MIC80 assay, clinical yeast isolates"}, "[4]": {"system": "Candida duobushaemulonii 391", "experiment": "Antifungal MIC80 assay, clinical yeast isolates", "conditions": "Candidozyma duobushaemuli, 391"}, "[5]": {"system": "Candida duobushaemulonii 392", "experiment": "Antifungal MIC80 assay, clinical yeast isolates", "conditions": "Candidozyma duobushaemuli, 392"}, "[6]": {"system": "Candida lusitaniae 398", "experiment": "Antifungal MIC80 assay, clinical yeast isolates", "conditions": "Clavispora lusitaniae, 398"}, "[7]": {"system": "Candida auris 389", "experiment": "Antifungal MIC80 assay, clinical yeast isolates", "conditions": "Candidozyma auris, 389"}, "[8]": {"system": "Candida auris 385", "experiment": "Antifungal MIC80 assay, clinical yeast isolates", "conditions": "Candidozyma auris, 385"}, "[9]": {"system": "Candida auris 381", "experiment": "Antifungal MIC80 assay, clinical yeast isolates", "conditions": "Candidozyma auris, 381"}, "[10]": {"system": "Candida auris 390", "experiment": "Antifungal MIC80 assay, clinical yeast isolates", "conditions": "Candidozyma auris, 390"}, "[11]": {"system": "Candida glabrata 22", "experiment": "Antifungal MIC80 assay, clinical yeast isolates", "conditions": "Nakaseomyces glabratus, 22"}, "[12]": {"system": "Rhizopus oryzae FGSC 9543", "experiment": "Antifungal MIC80/MFC assay, fungal pathogen panel", "conditions": "Rhizopus arrhizus, FGSC9543"}, "[13]": {"system": "Candida auris 387", "experiment": "Antifungal MIC80 assay, clinical yeast isolates", "conditions": "Candidozyma auris, 387"}, "[14]": {"system": "Aspergillus fumigatus MYA 3627", "experiment": "Antifungal MIC80/MFC assay, fungal pathogen panel", "conditions": "MYA3627"}, "[15]": {"system": "Candida tropicalis ATCC750 (Y-12699)", "experiment": "Antifungal MIC80/MFC assay, fungal pathogen panel", "conditions": "Candida tropicalis, ATCC750"}, "[16]": {"system": "Candida kefyr 12", "experiment": "Antifungal MIC80 assay, clinical yeast isolates", "conditions": "Kluyveromyces marxianus, 12"}, "[17]": {"system": "Candida auris 382", "experiment": "Antifungal MIC80 assay, clinical yeast isolates", "conditions": "Candidozyma auris, 382"}, "[18]": {"system": "Hamigera insecticola NRRL35442", "experiment": "Antifungal MIC80/MFC assay, fungal pathogen panel"}, "[19]": {"system": "Candida albicans 10", "experiment": "Antifungal MIC80 assay, clinical yeast isolates"}, "[20]": {"system": "Candida albicans 1", "experiment": "Antifungal MIC80 assay, clinical yeast isolates"}, "[21]": {"system": "Curvularia lunata NRRL6409", "experiment": "Antifungal MIC80/MFC assay, fungal pathogen panel"}, "[22]": {"system": "Candida auris 388", "experiment": "Antifungal MIC80 assay, clinical yeast isolates", "conditions": "Candidozyma auris, 388"}, "[23]": {"system": "Candida glabrata 17", "experiment": "Antifungal MIC80 assay, clinical yeast isolates", "conditions": "Nakaseomyces glabratus, 17"}, "[24]": {"system": "Aspergillus niger FGSC A732", "experiment": "Antifungal MIC80/MFC assay, fungal pathogen panel", "conditions": "Aspergillus niger, FGSCA732"}, "[25]": {"system": "44 clinical yeast isolates (Candida, Kodameae, Saccharomyces)", "experiment": "Antifungal MIC80 assay, summary over 44 clinical yeast isolates"}, "[26]": {"system": "Fusarium solani 243G2", "experiment": "Antifungal MIC80/MFC assay, fungal pathogen panel"}, "[27]": {"system": "Candida parapsilosis 23", "experiment": "Antifungal MIC80 assay, clinical yeast isolates", "conditions": "Lodderomyces parapsilosis, 23"}, "[28]": {"system": "Aspergillus fumigatus NRRL5109", "experiment": "Antifungal MIC80/MFC assay, fungal pathogen panel"}, "[29]": {"system": "Mucor circinelloides 235C7", "experiment": "Antifungal MIC80/MFC assay, fungal pathogen panel"}, "[30]": {"system": "Saccharomyces cerevisiae 400", "experiment": "Antifungal MIC80 assay, clinical yeast isolates", "conditions": "Saccharomyces cerevisiae, 400"}, "[31]": {"system": "Candida parapsilosis 18", "experiment": "Antifungal MIC80 assay, clinical yeast isolates", "conditions": "Lodderomyces parapsilosis, 18"}, "[32]": {"system": "Candida krusei 25", "experiment": "Antifungal MIC80 assay, clinical yeast isolates", "conditions": "Pichia kudriavzevii, 25"}, "[33]": {"system": "Candida albicans 14", "experiment": "Antifungal MIC80 assay, clinical yeast isolates"}, "[34]": {"system": "Saccharomyces cerevisiae 399", "experiment": "Antifungal MIC80 assay, clinical yeast isolates", "conditions": "Saccharomyces cerevisiae, 399"}, "[35]": {"system": "Candida albicans 21", "experiment": "Antifungal MIC80 assay, clinical yeast isolates"}, "[36]": {"system": "Candida parapsilosis 9", "experiment": "Antifungal MIC80 assay, clinical yeast isolates", "conditions": "Lodderomyces parapsilosis, 9"}}, "note": "Where two headings read alike, the source gives them in different places. *1 amine or outer side, *2 acyl side, *3 side chain or, on linkers, in order; H or OH if unused. Where a SMILES comes first, the peptide text is derived from it. [ ]: non-standard residue; d: D form. X2 = CC[C@H](C)C[C@H](C)C[C@H](C)C[C@H](N[*:1])C(=O)[*:2]; X1 = CC[C@@H](C)[C@@H](O[*:1])C(=O)[*:2]; NMeVal(β-OH) = CN[C@H](C(=O)O)C(C)(C)O; aIle = CC[C@@H](C)[C@H](N)C(=O)O; NMeV = CN[C@H](C(=O)O)C(C)C; Sar = CNCC(=O)O"}
{"smiles": "CC[C@H](C)C[C@H](C)C[C@H](C)C[C@@H]1NC(=O)[C@H](C(C)C)N(C)C(=O)[C@@H]([C@H](C)CC)OC(=O)[C@H](C(C)(C)O)N(C)C(=O)[C@H](CC(C)C)NC(=O)[C@H](C(C)C)N(C)C(=O)[C@H]([C@H](C)CC)NC(=O)[C@@H]2CCCN2C(=O)CN(C)C1=O", "note": "[Compound 1, persephacin] (cyclo(L[NMeVal(β-OH)][X1][NMeV][X2][Sar]P[aIle][NMeV]))", "values": [{"measurement": "MFC", "setting": "[1]", "result": "> 10", "unit": "µM"}, {"measurement": "MIC80", "setting": "[1]", "result": 2.5, "unit": "µM"}, {"measurement": "MIC80", "setting": "[2]", "result": 0.6, "unit": "µM"}, {"measurement": "MIC80", "setting": "[3]", "result": 5, "unit": "µM"}, {"measurement": "MIC80", "setting": "[4]", "result": 2.5, "unit": "µM"}, {"measurement": "MIC80", "setting": "[5]", "result": 2.5, "unit": "µM"}, {"measurement": "MIC80", "setting": "[6]", "result": 2.5, "unit": "µM"}, {"measurement": "MIC80", "setting": "[7]", "result": 2.5, "unit": "µM"}, {"measurement": "MIC80", "setting": "[8]", "result": 2.5, "unit": "µM"}, {"measurement": "MIC80", "setting": "[9]", "result": 2.5, "unit": "µM"}, {"measurement": "MIC80", "setting": "[10]", "result": 2.5, "unit": "µM"}, {"measurement": "MIC80", "setting": "[11]", "result": 0.6, "unit": "µM"}, {"measurement": "MFC", "setting": "[12]", "result": "> 10", "unit": "µM"}, {"measurement": "MIC80", "setting": "[12]", "result": "> 10", "unit": "µM"}, {"measurement": "MIC80", "setting": "[13]", "result": 2.5, "unit": "µM"}, {"measurement": "MFC", "setting": "[14]", "result": 5, "unit": "µM"}, {"measurement": "MIC80", "setting": "[14]", "result": 2.5, "unit": "µM"}, {"measurement": "MFC", "setting": "[15]", "result": 2.5, "unit": "µM"}, {"measurement": "MIC80", "setting": "[15]", "result": 1.25, "unit": "µM"}, {"measurement": "MIC80", "setting": "[16]", "result": 1.25, "unit": "µM"}, {"measurement": "MIC80", "setting": "[17]", "result": 2.5, "unit": "µM"}, {"measurement": "MFC", "setting": "[18]", "result": 5, "unit": "µM"}, {"measurement": "MIC80", "setting": "[18]", "result": 0.6, "unit": "µM"}, {"measurement": "MIC80", "setting": "[19]", "result": 2.5, "unit": "µM"}, {"measurement": "MIC80", "setting": "[20]", "result": 2.5, "unit": "µM"}, {"measurement": "MFC", "setting": "[21]", "result": 0.6, "unit": "µM"}, {"measurement": "MIC80", "setting": "[21]", "result": 0.3, "unit": "µM"}, {"measurement": "MIC80", "setting": "[22]", "result": 2.5, "unit": "µM"}, {"measurement": "MIC80", "setting": "[23]", "result": 0.15, "unit": "µM"}, {"measurement": "MFC", "setting": "[24]", "result": "> 10", "unit": "µM"}, {"measurement": "MIC80", "setting": "[24]", "result": 1.25, "unit": "µM"}, {"measurement": "MIC80", "setting": "[25]; read-out: maximum MIC80 value", "result": 5, "unit": "µM"}, {"measurement": "MIC80", "setting": "[25]; read-out: median MIC80", "result": 2.5, "unit": "µM"}, {"measurement": "MIC80", "setting": "[25]; read-out: minimum MIC80 value", "result": 0.15, "unit": "µM"}, {"measurement": "MFC", "setting": "[26]", "result": 2.5, "unit": "µM"}, {"measurement": "MIC80", "setting": "[26]", "result": 1.25, "unit": "µM"}, {"measurement": "MIC80", "setting": "[27]", "result": 2.5, "unit": "µM"}, {"measurement": "MFC", "setting": "[28]", "result": 5, "unit": "µM"}, {"measurement": "MIC80", "setting": "[28]", "result": 2.5, "unit": "µM"}, {"measurement": "MFC", "setting": "[29]", "result": "> 10", "unit": "µM"}, {"measurement": "MIC80", "setting": "[29]", "result": "> 10", "unit": "µM"}, {"measurement": "MIC80", "setting": "[30]", "result": 2.5, "unit": "µM"}, {"measurement": "MIC80", "setting": "[31]", "result": 1.25, "unit": "µM"}, {"measurement": "MIC80", "setting": "[32]", "result": 1.25, "unit": "µM"}, {"measurement": "MIC80", "setting": "[33]", "result": 0.6, "unit": "µM"}, {"measurement": "MIC80", "setting": "[34]", "result": 2.5, "unit": "µM"}, {"measurement": "MIC80", "setting": "[35]", "result": 1.25, "unit": "µM"}, {"measurement": "MIC80", "setting": "[36]", "result": 2.5, "unit": "µM"}]}
